In US20260318831A1 (University of Cincinnati, priority 2023, published 2026):

How the values were obtained:
[1] = system: endolysosomes in HeLa cells; experiment: Dual-channel confocal imaging of PyQPMe-stained endolysosomes, co-stained with LTDR; type: cell-based
Method: Next, imaging studies of PyQPMe were performed under a dual channel mode with the same excitation of 405 nm (green channel, emission range of 470-530 nm; red channel, emission range of 610-680 nm). Due to the strong green emission properties of PyQPMe over a wide pH range, many puncta fluorescence appeared throughout the cell in the green channel image (FIG. 3A). While in the red channel image, there is less puncta fluorescence in the cell because PyQPMe only emits red light at pH values below 6. Therefore, this imaging property of PyQPMe at different channels can guide one to track different stages of endocytosis. Images were randomly zoomed in and their fluorescence intensity was compared. […] Further, the average diameter of PyQPMe red spots is around 0.6 μm, which is in line with the reported size of lysosomes. To further verify the targeting ability of PyQPMe, the cells were co-stained with commercial lysosome dye Lyso-Tracker Deep Red (LTDR) and imaged under a deep red channel (excitation of 640 nm, emission range of 690-740 nm).
(§1) Leica Stellaris 8 Confocal imaging. High-resolution images were acquired on a commercial Leica Stellaris 8 Confocal Microscope under LIGHTNING mode. Laser powers were set at 10% intensity for 405 nm and 640 nm channels. The objective was 63×/1.4. High-resolution images were captured from the randomly selected field of view and analyzed with Leica LAS X and ImageJ software. All the images were exported on the Auto scale of the Leica LAS X software. Cells were seeded on glassed-bottomed cell dishes (MatTek) for 24 hours. Cells stained with PyQPMe (20 nM, 10 min) were treated with Wortmannin (1 μM, 24 h), CCCP ([…], 24 h), rapamycin (0.5 μM, 24 h), chloroquine (25 μM, 30 min), and NH4Cl (50 mM, 30 min). All PCC values were analyzed in the CellProfiler.

[2] = Fluorescence emission of PyQPMe in buffer solutions with different pH; type: physicochemical
Source text: (§2) In some aspects, the fluorescence of the probe changes as the pH of an endolysosome changes, such as between a pH range of about 8.0 to about 2.0. With the designed probe PyQPMe in hand, its UV-visible absorption was screened in aqueous buffers with a pH range of 8.0 to 4.0. […] Simultaneously, a new absorption maximum at 447 nm (ε=27,264 M^−1 cm^−1) rises with its tail exceeding 600 nm in pH 4.0 buffer solution. […] In addition, the fluorescence intensities of PyQPMe used for different imaging channels of the microscope were compared, where the wavelengths of 500 nm and 645 nm represent the green and red channels, respectively. When the buffer solution is much more acidic, the fluorescence intensity ratio of I645 nm/I500 nm is higher than 1 (FIG. 2C), indicating red color dominates the fluorescence of PyQPMe. Conversely, with increasing the pH value, green fluorescence light is becoming the predominant color for imaging.
Next, the effect of potential biochemical species on the fluorescence intensity of PyQPMe in both pH 3.0 and 8.2 buffer solutions was investigated. […] Fluorescence spectra of PyQPMe in various solvents with different polarities were also obtained. […] Furthermore, the photostability of PyQPMe was investigated under different pH conditions. […] Taken together, the above photophysical results identify that PyQPMe is a pH-sensitive probe, well suited for studying endolysosome dynamics via high-resolution imaging techniques.
(§3) Phosphate buffer solution. A series of standard pH buffer solutions were prepared by mixing 0.2 M Na2HPO4·7H2O, 0.2 M KH2PO4, and 0.2 M H3PO4 with varied volume ratios, and the pH values were measured by using a Mettler Toledo pH-meter.
(§4) Absorption and emission measurements. 3.0 mL phosphate buffer solution and 6.44 μL probe stock solution (4.66 mM) were mixed well, and an appropriate portion of the solution was transferred to a quartz cell with 1 cm optical length to collect the absorption spectra on an Agilent Cary 453 spectrophotometer. The fluorescence spectra were recorded on a HORIBA Fluorolog QM spectrofluorometer.
Fluorescence reversibility of PyQPMe. The pH of a PyQPMe solution between pH 3.0 and pH 8.5 was adjusted back and forth by adding 2.0 M KOH or 3.0 M HCl, which was monitored by a Mettler Toledo pH meter.

HeLa cells = experiment: Background fluorescence / signal-to-noise comparison with LysoTracker Red; type: cell-based; conditions: compared with LTR, same imaging conditions
Source text: Since PyQPMe has a large Stokes shift and strong fluorescence intensity, it can effectively reduce the background noise caused by excitation light and microenvironments. To illustrate this merit, the commercial lysosome dye (LysoTracker Red, LTR) was selected for comparison. Two different regions of the background were randomly chosen in each fluorescence image and plotted their 3D fluorescence intensity distribution maps, as shown in FIG. 4E.
as §1

[3] = UV-visible absorption of PyQPMe in aqueous buffers pH 4.0-8.0; type: physicochemical
Source text: as §2, §3, §4

[4] = system: endolysosomes in HeLa cells; experiment: Resolution limit in LIGHTNING confocal images; type: cell-based
Source text: The fluorescence images of PyQPMe were compared before and after the LIGHTNING module. […] To test the resolution limit of PyQPMe, confocal images were stochastically selected, and underlined the areas with luminescence in the images (FIG. 4A, 4C). The FWHMs (full width at half maximum) of these bright puncta fluorescence of PyQPMe-stained endolysosomes and later endosomes/lysosomes are down to 174 nm and 184 nm (FIG. 4B, 4D), respectively.
as §1

pH below which red light is emitted ([1]; red channel, 610-680 nm): below 6
maximum emission peak ([2]; 405 nm excitation, neutral solution): 510 nm
new emission peak ([2]; 405 nm excitation, pH decreased from 8.0 to 4.0): 650 nm
Stokes shift ([2]; acid solution): greater than 200 nm
reversibility of emission spectra ([2]; between pH 8.5 and pH 3.0): excellent reversibility
cut-off pH for the red to green fluorescence intensity ratio ([2]; from FIG. 2C): 5-6
fluorescence intensity ratio I645 nm/I500 nm ([2]; much more acidic buffer solution): higher than 1
quantum yield ([2]; pH 4.0 buffer solution): 0.23%
red shift of emission ([2]; pH decreased from 8.0 to 4.0): 140 nm
emission intensity ratio I510 nm/I650 nm against pH ([2]; pH titration curve): decent linear relationship
pKa ([3]; aqueous buffers, from absorption at 394 and 447 nm, pH 8.0 to 4.0, read-out: apparent pKa value): ~5
absorption maximum ([3]; neutral condition): 394 nm
ε at absorption maximum 394 nm ([3]; neutral condition): 34,147 M^−1cm^−1
new absorption maximum ([3]; pH 4.0 buffer solution): 447 nm
ε at absorption maximum 447 nm ([3]; pH 4.0 buffer solution): 27,264 M^−1 cm^−1
Compound: CN1CCN(c2ccc(/C=C/c3ccc4cc(-c5ccncc5)ccc4[n+]3C)cc2)CC1 [PyQPMe, (E)-1-methyl-2-(4-(4-methylpiperazin-1-yl)styryl)-6-(pyridin-4-yl)quinolin-1-ium]
ratio of red to green fluorescence intensity, early endosomes ([1]; ex 405 nm, early endosomes): very low ratio of red to green fluorescence intensity
ratio of red to green fluorescence intensity, late endosomes/lysosomes ([1]; ex 405 nm, late endosomes/lysosomes): higher than 1
PCC with LTDR, green channel ([1]; green channel particles vs deep red channel of LTDR): 0.46
average diameter of red spots ([1]; red channel): around 0.6 μm
Pearson correlation coefficient (PCC) with LTDR, red channel ([1]; red channel puncta vs deep red channel of LTDR): about 0.70
fluorescence over pH window ([2]; pH 8.0 to 4.0): remains fluorescent within the entire pH window
effect of solvent polarity on fluorescence ([2]; various solvents with different polarities): polarity has no effect on the fluorescence
background fluorescence of confocal images (HeLa cells): significantly reduced
signal-to-noise ratio (HeLa cells): better than that of LTR
FWHM of puncta, endolysosomes ([4]; PyQPMe-stained endolysosomes): 174 nm
FWHM of puncta, late endosomes/lysosomes ([4]; PyQPMe-stained late endosomes/lysosomes): 184 nm
